Reference: US7105558B2, “Gastrin and cholecystokinin receptor lignads (iv)” (The James Black Foundation Limited, priority 2000, dated 2006)

target: T1, gastrin (CCK2) receptors (Rattus norvegicus, UniProt P30553); experiment: immature rat stomach assay for gastrin (CCK2) antagonist activity (pentagastrin-stimulated acid secretion); details: isolated immature rat stomach, antagonism of pentagastrin dose-response curves, 60 min incubation; tested as N-methyl D-glucamine salts
T1 construct: The stomach was excised and flushed with ca. 1 ml of unbuffered physiological saline solution; from tissue; host or cells: isolated whole stomach of immature rats (33-50 g, ca. 21 days old)
T1 sequence (P30553 1-452): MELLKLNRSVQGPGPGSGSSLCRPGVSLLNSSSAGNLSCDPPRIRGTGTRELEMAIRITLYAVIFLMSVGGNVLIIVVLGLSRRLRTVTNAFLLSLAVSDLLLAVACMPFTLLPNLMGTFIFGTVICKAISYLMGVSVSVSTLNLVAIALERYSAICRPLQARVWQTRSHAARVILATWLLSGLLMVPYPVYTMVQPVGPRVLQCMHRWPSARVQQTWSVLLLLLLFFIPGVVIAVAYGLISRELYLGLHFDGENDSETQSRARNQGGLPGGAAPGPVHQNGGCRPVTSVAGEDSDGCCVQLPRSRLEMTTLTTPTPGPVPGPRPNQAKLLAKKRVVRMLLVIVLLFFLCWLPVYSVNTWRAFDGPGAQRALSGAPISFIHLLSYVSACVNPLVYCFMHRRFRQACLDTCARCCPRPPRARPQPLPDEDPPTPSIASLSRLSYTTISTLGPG
Experimental: The compounds of the examples were tested for gastrin (CCK2) antagonist activity in an immature rat stomach assay. The procedure was as follows:
The oesophagus of immature rats (33-50 g, ca. 21 days old) was ligated at the level of the cardiac sphincter and the duodenal sphincter was cannulated. The stomach was excised and flushed with ca. 1 ml of unbuffered physiological saline solution. The fundus was punctured and cannulated. A further 4-5 ml of unbuffered solution was flushed through the stomach to ensure the preparation was not leaking. The stomach was lowered into a jacketed organ bath containing 40 ml of buffered solution containing 3×10^−8 M 5-methylfurmethide, maintained at 37° and gassed vigorously with 95% O2/5% CO2. The stomach was continuously perfused at a rate of 1 ml min^−1 with unbuffered solution gassed with 100% O2 with the perfusate passing over an internally referenced pH-electrode fixed 12 cm above the stomach.
After 120 min of stabilisation the drugs were added directly to the serosal solution in the organ bath and after a further 60 min cumulative pentagastrin dose-response curves were started. Changes in acid secretion were monitored and the curves analysed according to Black et al, Br. J. Pharmacol., 1985, 86, 581.

Row | Structure (SMILES) | Rat stomach pKB
1 | O=C(O)c1cccc(NC(=O)c2nn(C3C4CC5CC(C4)CC3C5)nc2COC23CC4CC(CC(C4)C2)C3)c1 (stereo not shown) [Example 16, 3-[[2-Adamantan-2-yl-5-(Adamantan-1-yloxymethyl)-2H-[1,2,3]triazole-4-carbonyl]-amino]-benzoic acid.] | 6.82 ± 0.17

same assay, conditions: isolated immature rat stomach, antagonism of pentagastrin dose-response curves, 60 min incubation; tested as N-methyl D-glucamine salts; read-out: Rat stomach pKB (converted)

Row | Structure (SMILES) | Kb
2 | O=C(O)c1cccc(NC(=O)c2nn(C3CCCCC3)nc2COC23CC4CC(CC(C4)C2)C3)c1 [Example 2, 3-[[5-(Adamantan-1-yloxymethyl)-2-cyclohexyl-2H-[1,2,3]triazole-4-carbonyl]-amino]-benzoic acid] | 47.9 nM
3 | CC(C)(C)n1nc(COC23CC4CC(CC(C4)C2)C3)c(C(=O)Nc2cccc(C(=O)O)c2)n1 [Example 9, 3-[[5-(Adamantan-1-yloxymethyl)-2-tert-butyl-2H-[1,2,3]triazole-4-carbonyl]-amino]-benzoic acid] | 631 nM
4 | O=C(O)c1cccc(NC(=O)c2nn(-c3ccccc3C(F)(F)F)nc2COC23CC4CC(CC(C4)C2)C3)c1 [Example 7, 3-[[5-(Adamantan-1-yloxymethyl)-2-(2-trifluoromethyl-phenyl)-2H-[1,2,3]triazole-4-carbonyl]-amino]-benzoic acid] | 67.6 nM
5 | O=C(O)c1cccc(NC(=O)c2nnn(-c3ccccc3Cl)c2COC23CC4CC(CC(C4)C2)C3)c1 [Example 6, 3-[[5-(Adamantan-1-yloxymethyl)-1-(2-chloro-phenyl)-1H-[1,2,3]triazole-4-carbonyl]-amino]-benzoic acid] | 93.3 nM
6 | O=C(O)c1cccc(NC(=O)c2nn(-c3ccccc3)nc2COC23CC4CC(CC(C4)C2)C3)c1 [Example 20, 3-[[5-(Adamantan-1-yloxymethyl)-2-phenyl-2H-[1,2,3]triazole-4-carbonyl]-amino]-benzoic acid] | 2090 nM
7 | O=C(O)c1cccc(NC(=O)c2nn(-c3cccc4ccccc34)nc2COC23CC4CC(CC(C4)C2)C3)c1 [Example 18, 3-[[5-(Adamantan-1-yloxymethyl)-2-naphthalen-1-yl-2H-[1,2,3]triazole-4-carbonyl]-amino]-benzoic acid] | 1510 nM
